Article PMC6576746, “Rational discovery of dual-indication multi-target PDE/Kinase inhibitor for precision anti-cancer therapy using structural systems pharmacology” (PLoS Computational Biology, 2019)

Legend:
Assay in all cases: cells
Parameters in all cases: species or system panel of human cancer cell lines; Eurofins OncoPanel proliferation; nuclei count by high-content fluorescence imaging, 10-point dose response
U2OS = details: Homo sapiens, U2OS, 72 h, cell count, 3 days
Summary of the method: (§1)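 Ten half-log concentrations from 100 μM (0.1% DMSO max) applied one day post-seeding, 3-day exposure at 37°C; untreated time-zero plate for GI50. Readout is nuclear cell count by automated fluorescence imaging, giving EC50, IC50, GI50 and 0–10 activity area.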

SK-PN-DW = details: 72 h, cell count, 3 days
Summary of the method: as §1

Raji = details: Homo sapiens, Raji, 72 h, cell count, 3 days
Summary of the method: as §1

LS123 = details: Homo sapiens, LS-123, 72 h, cell count, 3 days
Summary of the method: as §1

EM-2 = details: Homo sapiens, EM-2, 72 h, cell count, 3 days
Summary of the method: as §1

SNU-423 = details: Homo sapiens, SNU-423, 72 h, cell count, 3 days
Summary of the method: as §1

[1] = 50% of maximum possible response

Structure (SMILES): C[C@@H]1CC(=O)NN=C1c1ccc(NN=C(C#N)C#N)cc1 [levosimendan]
- IC50 (U2OS; [1]): 8.58 µM
- GI50 (U2OS; corrected for time zero): 6.64 µM
- EC50 (U2OS; curve inflection point): 7.6 µM
- IC50 (SK-PN-DW; [1]): 57.4 µM
- GI50 (SK-PN-DW; corrected for time zero): 43.3 µM
- EC50 (SK-PN-DW; curve inflection point): 57.4 µM
- IC50 (Raji; [1]): 69.1 µM
- GI50 (Raji; corrected for time zero): 63.4 µM
- EC50 (Raji; curve inflection point): 69.1 µM
- IC50 (LS123; [1]): 53.3 µM
- GI50 (LS123; corrected for time zero): 22 µM
- EC50 (LS123; curve inflection point): 43.8 µM
- IC50 (EM-2; [1]): 25.4 µM
- GI50 (EM-2; corrected for time zero): 18.6 µM
- EC50 (EM-2; curve inflection point): 22.3 µM
- IC50 (SNU-423; [1]): 19.2 µM
- GI50 (SNU-423; corrected for time zero): 16.5 µM
- EC50 (SNU-423; curve inflection point): 14.8 µM
